Patent publication US7815946B1, “Anti-diabetic and cholesterol lowering preparation from fenugreek seeds” (priority 2001, dated 2010)

How the values were obtained:
diabetic rabbits [1] = assay: Comparison of Menthi, trigonelline and tolbutamide on glucose tolerance; type: in vivo, rabbit; details: 100 mg/kg/day for 3 days
Protocol: The antidiabetic activity of GII (Menthi) and the alkaloid trigonelline, which can be isolated from fenugreek seeds, were compared. Diabetic rabbits were administered the same dose (100 mg/kg/day) daily for 3 days. The activity of these two was also compared with a standard drug tolbutamide all at the same dosage schedule of 100 mg/Kg/day for 3 days.

[2] = reported by Mishinsky; cited from earlier work
diabetic rabbits [3] = details: cited from earlier work

Molecule	% Decrease in Blood Glucose Level at 2.5 Hours in GTT (diabetic rabbits [1]) [%]	hypoglycemic activity [2]	blood glucose during GTT (diabetic rabbits [3])
CCCCNC(=O)NS(=O)(=O)c1ccc(C)cc1 [Tolbutamide, tolbutamide]	25	–	–
C[n+]1cccc(C(=O)[O-])c1 [Trigonelline, trigonelline]	16	only mild and transient hypoglycemic activity	–
fenugreekine	–	–	could not lower blood glucose
